Measured values from patent publication US8183239B2, “Substituted piperazines and piperidines as modulators of the neuropeptide Y2 receptor” (Janssen Pharmaceutica NV, priority 2005, dated 2012).
Like-named read-outs stand apart in the source and are kept apart here.

Target: T1, Y2 receptors (Homo sapiens, UniProt P49146)
T1 construct: endogenous in cells; host or cells: KAN-Ts cells (membranes)
T1 sequence (P49146 1-381): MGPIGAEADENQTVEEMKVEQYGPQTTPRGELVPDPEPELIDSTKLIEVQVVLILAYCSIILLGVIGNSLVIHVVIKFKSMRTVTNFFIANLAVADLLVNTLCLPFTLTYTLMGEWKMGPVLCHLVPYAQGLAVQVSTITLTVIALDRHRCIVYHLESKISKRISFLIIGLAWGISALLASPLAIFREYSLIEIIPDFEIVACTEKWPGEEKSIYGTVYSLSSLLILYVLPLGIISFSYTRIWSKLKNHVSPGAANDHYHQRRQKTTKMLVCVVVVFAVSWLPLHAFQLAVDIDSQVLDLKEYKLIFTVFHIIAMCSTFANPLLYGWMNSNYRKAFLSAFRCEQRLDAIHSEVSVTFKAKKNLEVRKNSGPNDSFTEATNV
Assay: Radioligand binding assay ([125I]PYY, KAN-Ts cell membranes)
Details: average of results, read-out: IC50
Description: Radioligand Binding Assay
KAN-Ts endogenously expressing Y2 receptors were used for the radioligand binding assay. Cells were grown to confluence on 150 cm^2 tissue culture plates, washed with phosphate-buffered saline (PBS), and scraped into 50 mL tubes. After centrifugation, the supernatant was aspirated, and the pellets frozen and stored at −80° C. Thawed pellets were homogenized with a polytron tissue grinder for 15 sec in 20 mM Tris-HCl, 5 mM EDTA. The homogenate was centrifuged at 800×g for 5 min and the collected supernatant was recentrifuged at 25000×g for 25 min. The resulting pellet was resuspended in binding buffer (20 mM HEPES, 120 mM NaCl, 0.22 mM KH2PO4, 1.3 mM CaCl2, 0.8 mM MgSO4). Membranes were incubated with [^125I]PYY (80 pM) in the presence or absence of test compound for 1 h at rt. The reaction was stopped by filtration through GF/C filter plates pre-soaked in 0.3% polyethylenimine and subsequently washed with Tris 50 mM, 5 mM EDTA buffer. Plates were dried for 1 h in a 55° C. oven, scintillation fluid was added and the radioactivity was counted in a Packard TopCount. Specific binding to the NPY receptor subtypes was determined by radioactivity that was bound in the presence of […]. Each binding experiment was repeated three to eight times, each in duplicate. IC50 values (i.e. concentration of unlabelled peptide or antagonist required to compete for 50% of specific binding to the radioligand) were calculated using the GraphPad Prism software (GraphPad Software Inc., San Diego Calif.) with a fit to a sigmoidal dose response curve. Data for compounds tested are presented in Tables 1 and 2 as an average of results obtained.

| SMILES | IC50 (Table 2, [125I]PYY 80 pM) [nM] | IC50 (Table 1, [125I]PYY 80 pM) [nM] |
| --- | --- | --- |
| CCC(CC)C(=O)Nc1ccc(N2CCN(C(C(=O)OC)c3ccccc3)C(C(=O)OC)C2)c(F)c1 (single isomer, unassigned; diastereomer 1) [Example 269, 4-[4-(2-Ethyl-butyrylamino)-2-fluoro-phenyl]-1-(methoxycarbonyl-phenyl-methyl)-piperazine-2-carboxylic acid methyl ester (diastereomer 1)] | 2300 | – |
| CCC(CC)C(=O)Nc1ccc(N2CCN(Cc3cccc(C(=O)N4CCOCC4)c3)CC2)c(F)c1 [Example 3, 2-Ethyl-N-(3-fluoro-4-{4-[3-(morpholine-4-carbonyl)-benzyl]-piperazin-1-yl}-phenyl)-butyramide] | – | 560 |
| CCC(CC)C(=O)Nc1ccc(N2CCN(Cc3ccccc3C(=O)N3CCOCC3)CC2)c(F)c1 [Example 5, 2-Ethyl-N-(3-fluoro-4-{4-[2-(morpholine-4-carbonyl)-benzyl]-piperazin-1-yl}-phenyl)-butyramide] | – | 1900 |
| CCN(CC)C(=O)C(c1ccccc1)C1CCN(c2ccc(NC(=O)Nc3c(C)noc3C)cc2F)CC1 (stereo not shown) [Example 8, 2-(1-{4-[3-(3,5-Dimethyl-isoxazol-4-yl)-ureido]-2-fluoro-phenyl}-piperidin-4-yl)-N,N-diethyl-2-phenyl-acetamide] | – | 10 |
| CCN(CC)C(=O)C(c1ccccc1)C1CCN(c2ccc(NC(=O)Cc3c(C)noc3C)cc2F)CC1 (stereo not shown) [Example 9, 2-(1-{4-[2-(3,5-Dimethyl-isoxazol-4-yl)-acetylamino]-2-fluoro-phenyl}-piperidin-4-yl)-N,N-diethyl-2-phenyl-acetamide] | – | 14 |
| CCC(CC)C(=O)Nc1ccc(N2CCC(C(C(=O)N(CC)CC)c3ccccc3)CC2)c(F)c1 (stereo not shown) [Example 11, N-{4-[4-(Diethylcarbamoyl-phenyl-methyl)-piperidin-1-yl]-3-fluoro-phenyl}-2-ethyl-butyramide] | – | 12 |
| CCN(CC)C(=O)C(c1ccccc1)C1CCN(c2ccc(NC(=O)c3c(C)noc3C)cc2F)CC1 (stereo not shown) [Example 12, 3,5-Dimethyl-isoxazole-4-carboxylic acid {4-[4-(diethylcarbamoyl-phenyl-methyl)-piperidin-1-yl]-3-fluoro-phenyl}-amide] | – | 26 |
| CCN(CC)C(=O)C(c1ccccc1)N1CCN(c2ccc(NC(=O)Nc3c(C)noc3C)cc2F)CC1 (stereo not shown) [Example 20, 2-(4-{4-[3-(3,5-Dimethyl-isoxazol-4-yl)-ureido]-2-fluoro-phenyl}-piperazin-1-yl)-N,N-diethyl-2-phenyl-acetamide] | – | 16 |
| CCN(CC)C(=O)C(c1ccccc1)N1CCN(c2ccc(NC(=O)Cc3c(C)noc3C)cc2F)CC1 (stereo not shown) [Example 21, 2-(4-{4-[2-(3,5-Dimethyl-isoxazol-4-yl)-acetylamino]-2-fluoro-phenyl}-piperazin-1-yl)-N,N-diethyl-2-phenyl-acetamide] | – | 20 |
| CCN(CC)C(=O)C(c1ccccc1)N1CCN(c2ccc(NC(=O)c3c(C)noc3C)cc2F)CC1 (stereo not shown) [Example 22, 3,5-Dimethyl-isoxazole-4-carboxylic acid {4-[4-(diethylcarbamoyl-phenyl-methyl)-piperazin-1-yl]-3-fluoro-phenyl}-amide] | – | 26 |
| CCNC(=O)C(c1ccccc1)N1CCN(c2ccc(NC(=O)Nc3c(C)noc3C)cc2F)CC1 (stereo not shown) [Example 23, 2-(4-{4-[3-(3,5-Dimethyl-isoxazol-4-yl)-ureido]-2-fluoro-phenyl}-piperazin-1-yl)-N-ethyl-2-phenyl-acetamide] | – | 42 |

Second part, the molecule after the results:

| IC50 (Table 2, [125I]PYY 80 pM) [nM] | IC50 (Table 1, [125I]PYY 80 pM) [nM] | SMILES |
| --- | --- | --- |
| 600 | – | CCC(CC)C(=O)Nc1ccc(N2CCN(C(C(=O)OC)c3ccccc3)C(C(=O)OC)C2)c(F)c1 (single isomer, unassigned; diastereomer 2) [Example 265, 4-[4-(2-Ethyl-butyrylamino)-2-fluoro-phenyl]-1-(methoxycarbonyl-phenyl-methyl)-piperazine-2-carboxylic acid methyl ester (diastereomer 2)] |
| 30 | – | CC[C@H](C)C(=O)Nc1ccc(N2CCC(C(C(=O)N(CC)CC)c3ccccc3)CC2)c(C#N)c1 (stereo in doubt) [Example 218, N-{3-Cyano-4-[4-(diethylcarbamoyl-phenyl-methyl)-piperidin-1-yl]-phenyl}-2-methyl-butyramide] |
| – | 58 | CCC(CC)C(=O)Nc1ccc(N2CCN(C(C(=O)N3CCCC3)c3ccccc3)CC2)c(F)c1 (stereo not shown) [Example 1, 2-Ethyl-N-{3-fluoro-4-[4-(2-oxo-1-phenyl-2-pyrrolidin-1-yl-ethyl)-piperazin-1-yl]-phenyl}-butyramide] |
| – | 2350 | CCC(CC)C(=O)Nc1ccc(N2CCN(Cc3ccccc3C(=O)OC)CC2)c(F)c1 [Example 2, 2-{4-[4-(2-Ethyl-butyrylamino)-2-fluoro-phenyl]-piperazin-1-ylmethyl}-benzoic acid methyl ester] |
| – | 370 | CCC(CC)C(=O)Nc1ccc(N2CCN(Cc3ccccc3C(=O)N(CC)CC)CC2)c(F)c1 [Example 4, N,N-Diethyl-2-{4-[4-(2-ethyl-butyrylamino)-2-fluoro-phenyl]-piperazin-1-ylmethyl}-benzamide] |
| – | 71 | CCC(CC)C(=O)Nc1ccc(N2CCN(C(C(=O)N(CC)CC)c3ccccc3)CC2)c(F)c1 (stereo not shown) [Example 6, N-{4-[4-(Diethylcarbamoyl-phenyl-methyl)-piperazin-1-yl]-3-fluoro-phenyl}-2-ethyl-butyramide] |
| – | 377 | CCNC(=O)C(c1ccccc1)N1CCN(c2ccc(NC(=O)C(CC)CC)cc2F)CC1 (stereo not shown) [Example 7, 2-Ethyl-N-{4-[4-(ethylcarbamoyl-phenyl-methyl)-piperazin-1-yl]-3-fluoro-phenyl}-butyramide] |
| – | 58 | CCNC(=O)C(c1ccccc1)C1CCN(c2ccc(NC(=O)Cc3c(C)noc3C)cc2F)CC1 (stereo not shown) [Example 13, 2-(1-{4-[2-(3,5-Dimethyl-isoxazol-4-yl)-acetylamino]-2-fluoro-phenyl}-piperidin-4-yl)-N-ethyl-2-phenyl-acetamide] |
| – | 112 | CCNC(=O)C(c1ccccc1)C1CCN(c2ccc(NC(=O)C(CC)CC)cc2F)CC1 (stereo not shown) [Example 14, 2-Ethyl-N-{4-[4-(ethylcarbamoyl-phenyl-methyl)-piperidin-1-yl]-3-fluoro-phenyl}-butyramide] |
| – | 162 | CCNC(=O)C(c1ccccc1)C1CCN(c2ccc(NC(=O)Nc3c(C)cccc3C)cc2F)CC1 (stereo not shown) [Example 15, 2-(1-{4-[3-(2,6-Dimethyl-phenyl)-ureido]-2-fluoro-phenyl}-piperidin-4-yl)-N-ethyl-2-phenyl-acetamide] |
| – | 280 | CCCC(CCC)C(=O)Nc1ccc(N2CCC(C(C(=O)NCC)c3ccccc3)CC2)c(F)c1 (stereo not shown) [Example 16, 2-Propyl-pentanoic acid {4-[4-(ethylcarbamoyl-phenyl-methyl)-piperidin-1-yl]-3-fluoro-phenyl}-amide] |
| – | 1000 | CCNC(=O)C(c1ccccc1)C1CCN(c2ccc(NC(=O)NCc3ccc(F)cc3)cc2F)CC1 (stereo not shown) [Example 17, N-Ethyl-2-(1-{2-fluoro-4-[3-(4-fluoro-benzyl)-ureido]-phenyl}-piperidin-4-yl)-2-phenyl-acetamide] |
| – | 4000 | CCNC(=O)C(c1ccccc1)C1CCN(c2ccc(NC(=O)C(C)C)cc2)CC1 (stereo not shown) [Example 18, N-{4-[4-(Ethylcarbamoyl-phenyl-methyl)-piperidin-1-yl]-phenyl}-isobutyramide] |
| – | 10000 | CCNC(=O)C(c1ccccc1)C1CCN(c2ccc(NC(=O)CC3CCCCC3)cc2F)CC1 (stereo not shown) [Example 19, 2-{1-[4-(2-Cyclohexyl-acetylamino)-2-fluoro-phenyl]-piperidin-4-yl}-N-ethyl-2-phenyl-acetamide] |
